According to patent US9617256B2 (priority 2007, dated 2017):
Values after ≈ are worked out from the molar mass of the structure shown.

How the values were obtained:
[1] = test system: AECO001 (ATCC25922); assay: MIC broth microdilution, AECO001; format: cell-based, E. coli; conditions: Escherichia coli, ATCC25922, read-out: MIC AECO001
Outline: (§1)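 Incubation: 35° C., ambient air, 18-24 h. Medium: cation-adjusted Mueller-Hinton broth with 2-fold serial dilutions of drug. Inoculum: 3×10^5–7×10^5 CFU/mL final, per CLSI microdilution method.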

[2] = test system: AECO063 (ATCC25922 bearing an acrAB mutation); assay: microbe, parasite or virus in culture; format: cell-based, E. coli; conditions: Escherichia coli, ATCC25922, read-out: MIC AECO063
Outline: as §1

[3] = test system: APAE001 (ATCC27853); assay: MIC broth microdilution, APAE001; format: cell-based, P. aeruginosa; conditions: Pseudomonas aeruginosa, ATCC27853, read-out: MIC APAE001, APAE001 is ATCC27853
Outline: as §1

[4] = test system: APAE006 (strain of P. aeruginosa in which all efflux pumps are inactivated); assay: microbe, parasite or virus in culture; format: cell-based; conditions: Pseudomonas aeruginosa, read-out: MIC APAE006, P. aeruginosa, all efflux pumps inactivated
Outline: (§2)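 MICs come from broth microdilution in cation-adjusted Mueller-Hinton broth, final inoculum 3×10^5–7×10^5 CFU/mL, 18-24 hours at 35° C. Levofloxacin and QC strains served as assay controls.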

[5] = test system: APAE006 in the presence of 8 micrograms per milliliter of polymyxin B nonapeptide; format: cell-based, P. aeruginosa; conditions: in the presence of 8 micrograms per milliliter of polymyxin B nonapeptide
Outline: as §2

[6] = test system: AABA1060 (clinical isolate of Acinetobacter baumannii); assay: MIC broth microdilution, AABA1060; format: cell-based; conditions: Acinetobacter baumannii, read-out: MIC AABA1060
Outline: as §1

[7] = test system: ASAU001 (laboratory strain of S. aureus, ATCC29213); assay: MIC broth microdilution, ASAU001; format: cell-based; conditions: Staphylococcus aureus, ATCC29213, read-out: MIC ASAU001
Outline: as §1

[8] = test system: AECO001 HSA AGP; assay: MIC broth microdilution, AECO001 HSA AGP; format: cell-based, E. coli; conditions: Escherichia coli
Description: Bacterial isolates were cultivated from −70° C. frozen stocks by overnight passages at 35° C. in ambient air on Mueller-Hinton agar (Beckton Dickinson, Franklin Lakes, N.J.). Clinical isolates tested were obtained from various geographically diverse hospitals in the US and abroad (Focus Diagnostics, Herndon, Va. and JMI, North Liberty, Iowa). Quality control strains were from the American Type Culture Collection (ATCC; Rockville, Md.). Additional primary panel strains were generated using standard molecular biology techniques.
Minimum Inhibitory Concentrations (MICs) were determined by the broth microdilution method in accordance with the Clinical and Laboratory Standards Institute (CLSI) guidelines. In brief, organism suspensions were adjusted to a 0.5 McFarland standard to yield a final inoculum between 3×10^5 and 7×10^5 colony-forming units (CFU)/mL. Drug dilutions and inocula were made in sterile, cation adjusted Mueller-Hinton Broth (Beckton Dickinson). An inoculum volume of 100 μL was added to wells containing 100 μL of broth with 2-fold serial dilutions of drug. All inoculated microdilution trays were incubated in ambient air at 35° C. for 18-24 hours. […] Performance of the assay was monitored by the use of laboratory quality-control strains and levofloxacin, a compound with a defined MIC spectrum, in accordance with CLSI guidelines.
*AECO001 is ATCC25922, AECO063 is ATCC25922 bearing an acrAB mutation, APAE001 is ATCC27853, APAE006 is a strain of P. aeruginosa in which all efflux pumps are inactivated, APAE006+PMBN indicates MICs with the indicated strain in the presence of 8 micrograms per milliliter of polymyxin B nonapeptide, AABA1060 is a clinical isolate of Acinetobacter baumannii, ASAU001 is a laboratory strain of S. aureus (ATCC29213).

Structure (SMILES)	MIC [1]	MIC [2]	MIC [3]	MIC [4]	MIC APAE006 + PMBN [5]	MIC [6]	MIC [7]	MIC [8]
C[C@@H](O)[C@H](NC(=O)c1ccc(N2CCC(c3ccc(CN4CCOCC4)cc3)CC2)cc1)C(=O)NO [Example 42-7, N-((1S,2R)-2-Hydroxy-1-hydroxycarbamoyl-propyl)-4-[4-(4-morpholin-4-ylmethyl-phenyl)-piperidin-1-yl]-benzamide]	16 to 64 µg/mL (≈ 32.2 to 129 µM)	16 to 64 µg/mL (≈ 32.2 to 129 µM)	16 to 64 µg/mL (≈ 32.2 to 129 µM)	< 2 µg/mL	A (MIC's of 2.0 μg/mL or less = A)	16 to 64 µg/mL (≈ 32.2 to 129 µM)	> 64 µg/mL	16 to 64 µg/mL (≈ 32.2 to 129 µM)
C[C@@H](N)[C@H](NC(=O)c1ccc(C#Cc2ccc(CN3CCOCC3)cc2)cc1)C(=O)O [Example 117-2, (2S,3R)-3-Amino-2-[4-(4-morpholin-4-ylmethyl-phenylethynyl)-benzoylamino]-butyric acid]	> 64 µg/mL	> 64 µg/mL	> 64 µg/mL	> 64 µg/mL	C (MIC's of greater than 16.0 μg/mL to 64.0 μg/mL = C)	> 64 µg/mL	> 64 µg/mL	> 64 µg/mL
C[C@@H](N)[C@H](NC(=O)c1ccc(C#C/C=C/c2ccc(CNC3CC3)cc2)cc1)C(=O)NO [Example 102-2]	< 2 µg/mL	< 2 µg/mL	2 to 16 µg/mL (≈ 4.62 to 37 µM)	< 2 µg/mL	A (MIC's of 2.0 μg/mL or less = A)	2 to 16 µg/mL (≈ 4.62 to 37 µM)	16 to 64 µg/mL (≈ 37 to 148 µM)	2 to 16 µg/mL (≈ 4.62 to 37 µM)
C[C@@H](N)[C@H](NC(=O)c1ccc(C#Cc2ccc(CNCC(C)(C)C)cc2)cc1)C(=O)NO [Example 118-4]	< 2 µg/mL	< 2 µg/mL	< 2 µg/mL	< 2 µg/mL	A (MIC's of 2.0 μg/mL or less = A)	16 to 64 µg/mL (≈ 36.7 to 147 µM)	> 64 µg/mL	2 to 16 µg/mL (≈ 4.58 to 36.7 µM)
CC(C)(O)[C@H](NC(=O)c1ccc(C#CC#Cc2cccnc2)cc1)C(=O)NO [Example 88-5]	< 2 µg/mL	< 2 µg/mL	2 to 16 µg/mL (≈ 5.3 to 42.4 µM)	< 2 µg/mL		< 2 µg/mL	16 to 64 µg/mL (≈ 42.4 to 170 µM)	< 2 µg/mL
O=C(N[C@H](C(=O)NO)C1CCOCC1)c1ccc(/C=C/C#Cc2ccc(CN3CCOCC3)cc2)cc1 [Example 110-4]	< 2 µg/mL	< 2 µg/mL	2 to 16 µg/mL (≈ 3.97 to 31.8 µM)	< 2 µg/mL	A (MIC's of 2.0 μg/mL or less = A)	16 to 64 µg/mL (≈ 31.8 to 127 µM)	16 to 64 µg/mL (≈ 31.8 to 127 µM)	2 to 16 µg/mL (≈ 3.97 to 31.8 µM)
C[C@@H](N)[C@H](NC(=O)c1ccc(C#CC#Cc2ccncc2)cc1)C(=O)NO [Example 88-2]	< 2 µg/mL	< 2 µg/mL	< 2 µg/mL	< 2 µg/mL	A (MIC's of 2.0 μg/mL or less = A)	2 to 16 µg/mL (≈ 5.52 to 44.2 µM)	2 to 16 µg/mL (≈ 5.52 to 44.2 µM)	2 to 16 µg/mL (≈ 5.52 to 44.2 µM)
CC(C)(O)[C@H](NC(=O)c1ccc(C#C/C=C/c2ccc(CO)cc2)cc1)C(=O)NO [Example 101-5]	< 2 µg/mL	< 2 µg/mL	< 2 µg/mL	< 2 µg/mL	A (MIC's of 2.0 μg/mL or less = A)	< 2 µg/mL	16 to 64 µg/mL (≈ 39.2 to 157 µM)	2 to 16 µg/mL (≈ 4.9 to 39.2 µM)
C[C@@H](O)[C@H](NC(=O)c1ccc(SCc2ccc(CN3CCOCC3)cc2)cc1)C(=O)NO [Example 46-4, N-((1S,2R)-2-Hydroxy-1-hydroxycarbamoyl-propyl)-4-(4-morpholin-4-ylmethyl-benzylsulfanyl)-benzamide]	16 to 64 µg/mL (≈ 34.8 to 139 µM)	2 to 16 µg/mL (≈ 4.35 to 34.8 µM)	16 to 64 µg/mL (≈ 34.8 to 139 µM)	< 2 µg/mL		> 64 µg/mL	> 64 µg/mL	16 to 64 µg/mL (≈ 34.8 to 139 µM)
